{
  "source": "patent US10111881B2",
  "about": "(priority 2016, dated 2018)",
  "key": {"MARV": {"test_system": "MARV", "assay": "microbe, parasite or virus in culture", "format": "cell-based, Marburgvirus (Musoke strain)"}, "EBOV [1]": {"test_system": "EBOV", "assay": "organism not typed", "format": "cell-based, Zaire Ebolavirus (Mayinga strain)"}, "EBOV [2]": {"test_system": "EBOV", "assay": "microbe, parasite or virus in culture", "format": "cell-based, Zaire Ebolavirus (Mayinga strain)"}, "EBOV [3]": {"test_system": "EBOV", "format": "cell-based, Zaire Ebolavirus (Mayinga strain)"}, "HeLa cells [4]": {"test_system": "HeLa cells", "format": "cell-based, human", "settings": "for Dextran Uptake: 50 μM"}, "HeLa cells [5]": {"test_system": "HeLa cells", "format": "cell-based, human", "settings": "for Transferrin uptake: 50 μM"}, "[6]": {"test_system": "Baby hamster kidney fibroblasts (BHK) cells", "assay": "Acridine orange assay for acidification blockers", "format": "cell-based"}, "Cathepsin": {"test_system": "Cathepsin", "assay": "Cathepsin cleavage of GP"}, "NPC1 C-loop": {"target": "T1, NPC1 C-loop (Homo sapiens, UniProt O15118)", "T1 construct": "C-loop", "T1 sequence (O15118 372-620 limits assumed)": "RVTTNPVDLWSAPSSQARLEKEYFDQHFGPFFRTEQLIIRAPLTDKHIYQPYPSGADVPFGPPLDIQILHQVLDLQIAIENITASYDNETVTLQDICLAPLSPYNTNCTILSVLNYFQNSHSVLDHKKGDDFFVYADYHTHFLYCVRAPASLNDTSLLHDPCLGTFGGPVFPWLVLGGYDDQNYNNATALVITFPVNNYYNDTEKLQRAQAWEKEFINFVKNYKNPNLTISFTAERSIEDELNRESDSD", "assay": "NPC1 C-loop binding"}, "HeLa cells [7]": {"test_system": "HeLa cells", "settings": "human"}, "IL-1-Beta": {"test_system": "IL-1-Beta", "settings": "PubChem / MLSMR data; cited from earlier work"}, "Janus kinase 2": {"test_system": "Janus kinase 2", "settings": "PubChem data; cited from earlier work"}, "Synuclein": {"test_system": "Synuclein", "settings": "PubChem data; cited from earlier work"}, "Shiga toxins A and B": {"test_system": "Shiga toxins A and B", "settings": "cited from earlier work"}, "MDM2/A": {"target": "MDM2/A (Homo sapiens, UniProt Q00987)", "sequence (Q00987 whole entry, species assumed)": "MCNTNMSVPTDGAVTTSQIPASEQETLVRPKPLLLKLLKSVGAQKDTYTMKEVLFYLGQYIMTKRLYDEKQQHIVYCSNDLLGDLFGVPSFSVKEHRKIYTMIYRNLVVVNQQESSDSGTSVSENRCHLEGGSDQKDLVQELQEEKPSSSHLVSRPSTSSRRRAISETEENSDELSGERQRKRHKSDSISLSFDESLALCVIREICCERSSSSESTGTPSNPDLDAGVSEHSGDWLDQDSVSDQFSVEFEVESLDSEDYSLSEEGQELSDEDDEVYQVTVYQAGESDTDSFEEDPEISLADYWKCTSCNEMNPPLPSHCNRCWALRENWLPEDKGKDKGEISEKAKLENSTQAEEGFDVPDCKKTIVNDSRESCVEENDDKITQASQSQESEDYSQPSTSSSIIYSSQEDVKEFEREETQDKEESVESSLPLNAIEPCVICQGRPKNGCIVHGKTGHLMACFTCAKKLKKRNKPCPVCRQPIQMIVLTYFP", "settings": "MLSMR screening network data; cited from earlier work"}, "MDM4/1": {"target": "T2, MDM4/1 (Homo sapiens, UniProt O15151)", "T2 sequence (O15151 1-490)": "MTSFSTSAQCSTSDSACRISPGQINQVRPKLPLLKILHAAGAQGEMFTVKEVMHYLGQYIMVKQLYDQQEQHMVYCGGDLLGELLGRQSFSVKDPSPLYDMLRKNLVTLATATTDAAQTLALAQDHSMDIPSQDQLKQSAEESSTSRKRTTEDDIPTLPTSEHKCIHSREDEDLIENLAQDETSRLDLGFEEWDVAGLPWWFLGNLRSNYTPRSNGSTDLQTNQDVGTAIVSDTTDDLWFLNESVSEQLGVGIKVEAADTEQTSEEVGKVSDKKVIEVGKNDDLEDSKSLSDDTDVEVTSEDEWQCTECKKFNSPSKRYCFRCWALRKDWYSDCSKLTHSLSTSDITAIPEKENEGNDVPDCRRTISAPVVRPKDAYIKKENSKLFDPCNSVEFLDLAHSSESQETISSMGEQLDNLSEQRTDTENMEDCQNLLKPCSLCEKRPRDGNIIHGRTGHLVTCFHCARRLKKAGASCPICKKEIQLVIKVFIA", "settings": "MLSMR screening network data; cited from earlier work"}, "HeLa cells [8]": {"test_system": "HeLa cells", "format": "cell-based, human"}, "EEA1-positive vesicles": {"test_system": "EEA1-positive vesicles", "format": "cell-based, human"}, "LAMP1-positive vesicles": {"test_system": "LAMP1-positive vesicles", "format": "cell-based, human"}, "[9]": {"settings": "read-out: Activity in macrophages IC50"}},
  "note": "Read-outs that look alike come from different tables or passages of the source.",
  "data": [
    {"smiles": "O=[N+]([O-])c1cc(S(=O)(=O)NCCN2CCOCC2)ccc1Sc1nnnn1-c1ccccc1", "note": "[MLS000394177, N-(2-morpholin-4-ylethyl)-3-nitro-4-(1-phenyltetrazol-5-yl)sulfanylbenzenesulfonamide]", "values": [
      {"measurement": "Curve class (MARV)", "setting": "MARV", "value": 1.3},
      {"measurement": "MARV (Curve class)", "setting": "MARV", "value": 1.3},
      {"measurement": "IC50", "setting": "MARV; Orthomarburgvirus, HeLa, read-out: IC-50 (MARV)", "value": 12.9, "unit": "µM"},
      {"measurement": "IC50", "setting": "MARV; Orthomarburgvirus, HeLa, read-out: MARV HeLa IC50 (μM)", "value": 12.9, "unit": "µM"},
      {"measurement": "Curve Class (EBOV)", "setting": "EBOV [1]", "value": 1.6},
      {"measurement": "EBOV (curve class)", "setting": "EBOV [1]", "value": 1.6},
      {"measurement": "potency for Ebolavirus inhibition, times better than EIPA", "setting": "EBOV [1]", "value": 25, "unit": "times"},
      {"measurement": "EC50", "setting": "EBOV [1]; HeLa, read-out: EC50 for Ebolavirus inhibition", "value": 1.9, "unit": "µM"},
      {"measurement": "IC50", "setting": "EBOV [1]; Zaire ebolavirus, HeLa, read-out: EBOV HeLa IC50 (μM)", "value": 1.9, "unit": "µM"},
      {"measurement": "IC50", "setting": "EBOV [1]; Zaire ebolavirus, HeLa, read-out: IC-50 (EBOV)", "value": 1.89, "unit": "µM"},
      {"measurement": "IC50", "setting": "EBOV [2]; Zaire ebolavirus, Macrophage, read-out: Activity in macrophages IC50 (μM)", "value": 8.6, "unit": "µM"},
      {"measurement": "Surface interaction", "setting": "EBOV [3]", "value": "+"},
      {"measurement": "Uninfected cell number", "setting": "EBOV [3]", "value": 0},
      {"measurement": "enhancement of virus interaction with cells", "setting": "EBOV [3]", "value": 44, "unit": "%"},
      {"measurement": "reduction of number of viral particles inside the cell body", "setting": "EBOV [3]", "value": 62, "unit": "%"},
      {"measurement": "reduction of uptake of fluorescently labeled dextran", "setting": "HeLa cells [4]", "value": "approximately 91%"},
      {"measurement": "Dextran Uptake", "setting": "HeLa cells [4]", "value": "−"},
      {"measurement": "effect on transferrin uptake", "setting": "HeLa cells [5]", "value": "no effect on transferrin uptake"},
      {"measurement": "Transferrin uptake", "setting": "HeLa cells [5]", "value": 0},
      {"measurement": "Acidification Block", "setting": "[6]", "value": "+"},
      {"measurement": "effect on endosomal acidification", "setting": "[6]", "value": "affected endosomal acidification"},
      {"measurement": "Cathepsin clevage", "setting": "Cathepsin", "value": 0},
      {"measurement": "NPC1 C-loop binding", "setting": "NPC1 C-loop", "value": 0},
      {"measurement": "toxic concentration (not toxic up to / toxic at)", "setting": "HeLa cells [7]", "value": "> 100", "unit": "µM"},
      {"measurement": "secretion of IL-1-Beta", "setting": "IL-1-Beta", "value": "inhibit secretion of IL-1-Beta"},
      {"measurement": "inhibition of Janus kinase 2 (JNK2)", "setting": "Janus kinase 2", "value": "active"},
      {"measurement": "Synuclein activity", "setting": "Synuclein", "value": "active"},
      {"measurement": "Shiga toxins A and B", "setting": "Shiga toxins A and B", "value": "active"},
      {"measurement": "inhibition of MDM2/A", "setting": "MDM2/A", "value": "identified as inhibitors"},
      {"measurement": "inhibition of MDM4/1", "setting": "MDM4/1", "value": "identified as inhibitors"}
    ]},
    {"smiles": "N#Cc1c(NCCN)nc(-c2ccccc2)c2c1CCCC2", "note": "[MLS000534476]", "values": [
      {"measurement": "Curve class (MARV)", "setting": "MARV", "value": 1.3},
      {"measurement": "MARV (Curve class)", "setting": "MARV", "value": 1.3},
      {"measurement": "IC50", "setting": "MARV; read-out: IC-50 (MARV)", "value": 6.21, "unit": "µM"},
      {"measurement": "IC50", "setting": "MARV; read-out: MARV HeLa IC50", "value": 6.2, "unit": "µM"},
      {"measurement": "Curve Class (EBOV)", "setting": "EBOV [1]", "value": 1.6},
      {"measurement": "EBOV (curve class)", "setting": "EBOV [1]", "value": 1.6},
      {"measurement": "IC50", "setting": "EBOV [1]; read-out: EBOV HeLa IC50", "value": 24.4, "unit": "µM"},
      {"measurement": "IC50", "setting": "EBOV [1]; read-out: IC-50 (EBOV)", "value": 24.4, "unit": "µM"},
      {"measurement": "IC50", "setting": "EBOV [2]; [9]", "value": 3.6, "unit": "µM"},
      {"measurement": "Surface interaction", "setting": "EBOV [3]", "value": "−"},
      {"measurement": "Uninfected cell number", "setting": "EBOV [3]", "value": "+"},
      {"measurement": "decrease in total viral particles bound to cell surface", "setting": "EBOV [3]", "value": 55, "unit": "%"},
      {"measurement": "virus particle uptake", "setting": "EBOV [3]", "value": "reduced particle uptake"},
      {"measurement": "decrease in transferrin binding to cells", "setting": "HeLa cells [8]", "value": "> 55", "unit": "%"},
      {"measurement": "Dextran Uptake", "setting": "HeLa cells [4]", "value": 0},
      {"measurement": "Transferrin uptake", "setting": "HeLa cells [5]", "value": "−"},
      {"measurement": "Acidification Block", "setting": "[6]", "value": "+"},
      {"measurement": "effect on endosomal acidification", "setting": "[6]", "value": "affected endosomal acidification"},
      {"measurement": "Cathepsin clevage", "setting": "Cathepsin", "value": 0},
      {"measurement": "GP cleavage by cellular proteases", "setting": "Cathepsin", "value": "reduced GP cleavage"},
      {"measurement": "NPC1 C-loop binding", "setting": "NPC1 C-loop", "value": 0},
      {"measurement": "inhibition of MDM2/A", "setting": "MDM2/A", "value": "identified as inhibitors"},
      {"measurement": "inhibition of MDM4/1", "setting": "MDM4/1", "value": "identified as inhibitors"}
    ]},
    {"smiles": "CC(C)(C)c1nc2ccccc2c2nnc(SCC(=O)Nc3nccs3)n12", "note": "[MLS000555232]", "values": [
      {"measurement": "Curve class (MARV)", "setting": "MARV", "value": 1.3},
      {"measurement": "MARV (Curve class)", "setting": "MARV", "value": 1.3},
      {"measurement": "IC50", "setting": "MARV; read-out: IC-50 (MARV)", "value": 6.26, "unit": "µM"},
      {"measurement": "IC50", "setting": "MARV; read-out: MARV HeLa IC50", "value": 6.3, "unit": "µM"},
      {"measurement": "Curve Class (EBOV)", "setting": "EBOV [1]", "value": 1.6},
      {"measurement": "EBOV (curve class)", "setting": "EBOV [1]", "value": 1.6},
      {"measurement": "IC50", "setting": "EBOV [1]; read-out: EBOV HeLa IC50", "value": 1.7, "unit": "µM"},
      {"measurement": "IC50", "setting": "EBOV [1]; read-out: IC-50 (EBOV)", "value": 1.74, "unit": "µM"},
      {"measurement": "IC50", "setting": "EBOV [2]; [9]", "value": 9.4, "unit": "µM"},
      {"measurement": "Surface interaction", "setting": "EBOV [3]", "value": "+"},
      {"measurement": "Uninfected cell number", "setting": "EBOV [3]", "value": 0},
      {"measurement": "enhancement of virus interaction with cells", "setting": "EBOV [3]", "value": 89, "unit": "%"},
      {"measurement": "increase in virus particle binding to the cell surface", "setting": "EBOV [3]", "value": "~2", "unit": "fold"},
      {"measurement": "Dextran Uptake", "setting": "HeLa cells [4]", "value": 0},
      {"measurement": "effect on transferrin uptake", "setting": "HeLa cells [5]", "value": "do not inhibit transferrin uptake"},
      {"measurement": "Transferrin uptake", "setting": "HeLa cells [5]", "value": 0},
      {"measurement": "Effect on EEA1", "setting": "EEA1-positive vesicles", "value": "−"},
      {"measurement": "reduction of colocalization of EBOV VLPs with EEA1-positive vesicles", "setting": "EEA1-positive vesicles", "value": 77, "unit": "%"},
      {"measurement": "Effect on LAMP1", "setting": "LAMP1-positive vesicles", "value": "−"},
      {"measurement": "reduction of number of VLPs present in LAMP1-positive vesicles", "setting": "LAMP1-positive vesicles", "value": 89, "unit": "%"},
      {"measurement": "Acidification Block", "setting": "[6]", "value": "−"},
      {"measurement": "Cathepsin clevage", "setting": "Cathepsin", "value": 0},
      {"measurement": "NPC1 C-loop binding", "setting": "NPC1 C-loop", "value": 0},
      {"measurement": "inhibition of MDM2/A", "setting": "MDM2/A", "value": "identified as inhibitors"},
      {"measurement": "inhibition of MDM4/1", "setting": "MDM4/1", "value": "identified as inhibitors"}
    ]}
  ]
}
